According to ChEMBL document CHEMBL1201862, “PubChem BioAssay data set” (2004):
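Interpolation was linear, between the two tested concentrations surrounding the appropriate level; five concentrations were tested over 48 hours in 96-well plates. GI50: concentration for 50% inhibition of growth.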 Activity calls are given as the source filed them. No stated cut-off is given here; in the data, active = GI50 up to about 1.1 µM and inactive = higher.

Tests used:
Test in all cases: NCI anticancer screen, dose series, 48 h
NCI-H23 = system: NCI-H23
CCRF-CEM = system: CCRF-CEM
SK-OV-3 = system: SK-OV-3
SK-MEL-2 = system: SK-MEL-2
CAKI-1 = system: CAKI-1
HL-60 = system: HL-60
SF-539 = system: SF-539
SNB-19 = system: SNB-19
KM12 = system: KM12
SK-MEL-28 = system: SK-MEL-28
UACC-62 = system: UACC-62
LOX IMVI = system: LOX IMVI
MDA-N = system: MDA-N
HCT-116 = system: HCT-116
MCF7 = system: MCF7
K562 = system: K562
ACHN = system: ACHN
IGROV-1 = system: IGROV-1
A498 = system: A498
Malme-3M = system: Malme-3M

| Structure (SMILES) | GI50 (NCI-H23) | GI50 (CCRF-CEM) | GI50 (SK-OV-3) | GI50 (SK-MEL-2) | GI50 (CAKI-1) | GI50 (HL-60) | GI50 (SF-539) | GI50 (SNB-19) | GI50 (KM12) | GI50 (SK-MEL-28) | GI50 (UACC-62) | GI50 (LOX IMVI) | GI50 (MDA-N) | GI50 (HCT-116) | GI50 (MCF7) | GI50 (K562) | GI50 (ACHN) | GI50 (IGROV-1) | GI50 (A498) | GI50 (Malme-3M) |
| --- | --- | --- | --- | --- | --- | --- | --- | --- | --- | --- | --- | --- | --- | --- | --- | --- | --- | --- | --- | --- |
| Cc1nc2ccc(Br)cc2c(=O)n1-c1nnc(C(C)(C)C)s1 | > 10 µM (inactive) | > 10 µM (inactive) | > 10 µM (inactive) | > 10 µM (inactive) | > 10 µM (inactive) | > 10 µM (inactive) | > 10 µM (inactive) | > 10 µM (inactive) | > 10 µM (inactive) | > 10 µM (inactive) | > 10 µM (inactive) | > 10 µM (inactive) | > 10 µM (inactive) | > 10 µM (inactive) | > 10 µM (inactive) | > 10 µM (inactive) | > 10 µM (inactive) | > 10 µM (inactive) |  |  |
| CC(O)/C=C/C1OC(=O)CC1Nc1ccc(C=O)cc1 (stereo not drawn) | 59 µM (inactive) | 15.8 µM (inactive) | > 100 µM (inactive) | 23.3 µM (inactive) |  |  | 87.1 µM (inactive) | > 100 µM (inactive) | > 100 µM (inactive) | > 100 µM (inactive) | 23.7 µM (inactive) | > 100 µM (inactive) | > 100 µM (inactive) | > 100 µM (inactive) | 55.2 µM (inactive) | 41.5 µM (inactive) | > 100 µM (inactive) | 91.2 µM (inactive) | > 100 µM (inactive) | > 100 µM (inactive) |
| Cc1cccc(Nc2nc(NNC(=O)Cc3ccccc3)nc(NNC(=O)c3ccncc3)n2)c1 | > 10 µM (inactive) | > 10 µM (inactive) | > 10 µM (inactive) |  | > 10 µM (inactive) | > 10 µM (inactive) | > 10 µM (inactive) | > 10 µM (inactive) | > 10 µM (inactive) | > 10 µM (inactive) | > 10 µM (inactive) | > 10 µM (inactive) | > 10 µM (inactive) | > 10 µM (inactive) | > 10 µM (inactive) |  | > 10 µM (inactive) | > 10 µM (inactive) |  | > 10 µM (inactive) |
| N#Cc1c(N2CCN(c3ccc([N+](=O)[O-])cc3)CC2)[n+]([O-])c2ccc(Cl)cc2[n+]1[O-] | 1.71 µM (inactive) | 0.29 µM (active) | 1.78 µM (inactive) | 2.2 µM (inactive) | 0.489 µM (active) |  | 1.15 µM (inactive) | 2.81 µM (inactive) | 1.7 µM (inactive) | 4.52 µM (inactive) | 1.18 µM (inactive) | 0.459 µM (active) | 1.75 µM (inactive) | 0.427 µM (active) | 0.973 µM (active) | 0.231 µM (active) | 0.789 µM (active) | 0.318 µM (active) | 0.575 µM (active) | 2 µM (inactive) |
| CN1CC=C(c2cccn2C)CC1 | > 100 µM (inactive) | > 100 µM (inactive) | > 100 µM (inactive) | > 100 µM (inactive) | > 100 µM (inactive) | > 100 µM (inactive) |  | > 100 µM (inactive) | > 100 µM (inactive) | > 100 µM (inactive) | > 100 µM (inactive) | > 100 µM (inactive) | > 100 µM (inactive) | > 100 µM (inactive) | > 100 µM (inactive) | > 100 µM (inactive) | > 100 µM (inactive) | > 100 µM (inactive) |  | > 100 µM (inactive) |
| CC1(C)CC2C(/C1=N/O)C1(C)CCCC2(C)C1O (stereo not drawn) | > 100 µM (inactive) | > 100 µM (inactive) | > 100 µM (inactive) | > 100 µM (inactive) | > 100 µM (inactive) | > 100 µM (inactive) |  | > 100 µM (inactive) | > 100 µM (inactive) | > 100 µM (inactive) | > 100 µM (inactive) | > 100 µM (inactive) | > 100 µM (inactive) | > 100 µM (inactive) | > 100 µM (inactive) | > 100 µM (inactive) | > 100 µM (inactive) | > 100 µM (inactive) |  | > 100 µM (inactive) |
| O=c1[nH]c(=O)n([C@H]2C[C@H](O)[C@@H](CO)O2)cc1Br [BROXURIDINE] | > 100 µM (inactive) | > 64.4 µM (inactive) | > 100 µM (inactive) | > 100 µM (inactive) | > 100 µM (inactive) |  | > 100 µM (inactive) | > 100 µM (inactive) | > 100 µM (inactive) | > 86.5 µM (inactive) | > 100 µM (inactive) | > 97.1 µM (inactive) | > 100 µM (inactive) | > 94 µM (inactive) | 17.7 µM (inactive) | > 72.4 µM (inactive) | > 100 µM (inactive) | > 59.2 µM (inactive) | > 100 µM (inactive) | > 85.9 µM (inactive) |
| O=c1cc(-c2ccccc2)[nH]c2cc(F)c(F)cc12 | 0.653 µM (active) | 0.379 µM (active) | 0.575 µM (active) | 3.01 µM (inactive) | > 100 µM (inactive) | 0.23 µM (active) | 0.342 µM (active) | 0.718 µM (active) | 0.326 µM (active) | 1.72 µM (inactive) | 0.322 µM (active) | 0.494 µM (active) | 0.0764 µM (active) | 0.417 µM (active) | 0.323 µM (active) | 0.29 µM (active) | 0.676 µM (active) | 0.634 µM (active) |  | > 69.5 µM (inactive) |
| C=C1OC(=O)[C@]2([C@@H](/C=C/C)C=CC(=O)[C@H]2O)[C@@H]1O | > 100 µM (inactive) | > 100 µM (inactive) | > 100 µM (inactive) | > 100 µM (inactive) | > 100 µM (inactive) | > 100 µM (inactive) | > 100 µM (inactive) | > 100 µM (inactive) | > 100 µM (inactive) | > 100 µM (inactive) | > 100 µM (inactive) | > 100 µM (inactive) | > 100 µM (inactive) | > 100 µM (inactive) | > 100 µM (inactive) | > 100 µM (inactive) | > 100 µM (inactive) | > 100 µM (inactive) |  | > 100 µM (inactive) |
| COc1cc2cc(C(=O)N3CC(CCl)c4c3cc(N(C)C)c3ccccc43)[nH]c2c(OC)c1OC (stereo not drawn) | < 0.01 µM (active) | < 0.01 µM (active) | 0.0137 µM (active) | < 0.01 µM (active) | < 0.01 µM (active) |  | 0.0131 µM (active) | 0.0124 µM (active) | 0.0117 µM (active) | 0.0483 µM (active) | < 0.01 µM (active) | < 0.01 µM (active) | 0.0169 µM (active) | < 0.01 µM (active) | < 0.01 µM (active) | < 0.01 µM (active) | < 0.01 µM (active) | 0.0111 µM (active) | 0.0123 µM (active) | 0.0321 µM (active) |
| O=C(O)c1cc2ccccc2c(/N=N/c2ccc(S(=O)(=O)Nc3nccs3)cc2)c1O | > 100 µM (inactive) | > 100 µM (inactive) | > 100 µM (inactive) | > 100 µM (inactive) | > 100 µM (inactive) | > 100 µM (inactive) | > 100 µM (inactive) |  | > 100 µM (inactive) | > 100 µM (inactive) | > 100 µM (inactive) |  | > 100 µM (inactive) | > 100 µM (inactive) | > 100 µM (inactive) | > 100 µM (inactive) | > 100 µM (inactive) | > 100 µM (inactive) |  | > 100 µM (inactive) |
| O=C1c2nc3n(c2C(=O)c2c1nc1n2CCC1)CCC3 | 2.49 µM (inactive) | 6.41 µM (inactive) | 23.7 µM (inactive) | 3.66 µM (inactive) | 9.35 µM (inactive) |  | 3.64 µM (inactive) | 14.7 µM (inactive) | 4.41 µM (inactive) | 13.3 µM (inactive) | 1.85 µM (inactive) | 3.1 µM (inactive) | 1.77 µM (inactive) | 3.03 µM (inactive) | 2.68 µM (inactive) | 13 µM (inactive) | 10.9 µM (inactive) | 11.5 µM (inactive) | 16 µM (inactive) | 0.904 µM (active) |
| CC(=O)N1C(Nc2cnc3ccccc3c2)CCN1c1ccccc1 (stereo not drawn) | > 10 µM (inactive) | > 10 µM (inactive) | > 10 µM (inactive) | > 10 µM (inactive) | > 10 µM (inactive) | 6.37 µM (inactive) | > 10 µM (inactive) | > 10 µM (inactive) |  | > 10 µM (inactive) |  | 5.65 µM (inactive) | > 10 µM (inactive) | > 10 µM (inactive) | > 10 µM (inactive) | 6.58 µM (inactive) | 9.57 µM (inactive) | > 10 µM (inactive) |  | > 10 µM (inactive) |
| NC[C@H]1Nc2ccccc2[C@@H](O)C1O (stereo partly drawn) | > 100 µM (inactive) | > 100 µM (inactive) | > 100 µM (inactive) | > 100 µM (inactive) | > 100 µM (inactive) | > 100 µM (inactive) | > 100 µM (inactive) | > 100 µM (inactive) | > 100 µM (inactive) | > 100 µM (inactive) | > 100 µM (inactive) | > 100 µM (inactive) | > 100 µM (inactive) | > 100 µM (inactive) | > 100 µM (inactive) | > 100 µM (inactive) | > 100 µM (inactive) | > 100 µM (inactive) |  | > 100 µM (inactive) |
| O=[N+]([O-])/C(C(Cl)=C(Cl)Cl)=C(\Nc1cccc2cccnc12)Sc1ccccc1 | 18.3 µM (inactive) | 27.7 µM (inactive) | 34.2 µM (inactive) | 17.1 µM (inactive) | 22 µM (inactive) |  | 20.8 µM (inactive) | 31.6 µM (inactive) | 12.6 µM (inactive) | 20.4 µM (inactive) | 11.1 µM (inactive) |  | 43 µM (inactive) | 19.4 µM (inactive) | 20.8 µM (inactive) | 28.4 µM (inactive) | 22.8 µM (inactive) |  | 20 µM (inactive) | 23.1 µM (inactive) |
